Read-outs that look alike come from different tables or passages of the source.
Experiments:
Pharmacokinetics in dogs = assay type: in vivo; settings: for AUC(0-t) / clearance / half-life / AUC(0-inf) / MRT inf / Cmax / Tmax / bioavailability: male, Beagle, dog, plasma; for AUC(0-inf): read-out: AUCINF_obs; for MRT inf: read-out: MRTINF_obs
Procedure: Three groups of male Beagle dogs weighing 9 to 12 kg (2 animals per group) were intravenously (1 mg/kg), subcutaneously (1 mg/kg) and orally (5 mg/kg) dosed 14a in a vehicle consisting of 5% dimethyl sulfoxide, 7.5% Kolliphor HS 15 and 87.5% saline (volume ratio). Serial blood samples were collected at 0.083, 0.25, 0.75, 2.0, 4.0, 6.0, 8.0 and 24.0 h for the intravenous and […] groups and 0.25, 0.5, 1.0, 2.0, 4.0, 6.0, 8.0 and 24.0 h for the oral group after dose administration. Two groups of male Beagle dogs weighing 9 to 12 kg (3 animals per group) were intravenously (1 mg/kg) and subcutaneously (1 mg/kg) dosed 14b in a vehicle consisting of 5% dimethyl sulfoxide, 5% ethanol, 40% polyethylene glycol 400 and 50% saline (volume ratio). Serial blood samples were collected at 0.083, 0.25, 0.50, 1.00, 2.00, 4.00, 8.00 and 24.0 h after dose administration. A group of 3 male Beagle dogs weighing 9 to 12 kg was administered an oral dose of 5 mg/kg 14b in a vehicle consisting of 5% dimethyl sulfoxide and 95% hydroxypropyl methyl cellulose solution (0.5% hydroxypropyl methyl cellulose in deionized water in weight ratio) (volume ratio). Serial blood samples were collected at 0.25, 0.50, 1.00, 2.00, 4.00, 8.00 and 24.0 h after dose administration. All blood samples were obtained by centrifugation and stored at -20 °C until analysis.
Plasma compound concentrations were obtained through HPLC-MS/MS, and the pharmacokinetics parameters were analyzed by Phoenix WinNonlin 7.0. The following parameters were determined: Cmax (maximal concentration of drug in plasma), AUClast or AUCINF_obs (area under the concentration curve from the time of dosing to the last measurable concentration or from the time of dosing to infinity, respectively). Tmax (time of maximum observed concentration), T1/2 (half-life of elimination), MRTINF_obs (mean residence time extrapolated to infinity for a substance administered by indicated dosing using observed last concentration), CL (total body clearance), Vss (volume of distribution at steady state) and F (absolute bioavailability, F = (AUCx × Di.v.)/( AUCi.v. × Dx) × 100%, where x is i.p., s.c. or p.o., and AUC is AUCINF_obs).The pharmacokinetic parameters were analyzed by Phoenix WinNonlin 7.0.

HCoV-OC43 = assay: Protective effect against HCoV-OC43 infection in newborn mice; assay type: in vivo
Procedure: We also further assessed the in vivo antiviral activity of compound 14b against HCoV-OC43 infection in a mouse model. In the HCoV-OC43 infection mouse model, we treated newborn mice with 14b at a dose of 5 mg/kg by intraperitoneal injection 24 h after challenge with HCoV-OC43 at 100 TCID50.
Protective effect of 14b against HCoV-OC43 in vivo was assessed as previously reported.[45] All newborn mice were challenged with HCoV-OC43 (100 TCID50) by intranasal administration. For mice in the 14b-treated group, 14b (5 mg/kg) in a proper solution (1% dimethyl sulfoxide, 9% polyethylene glycol 300, and 90% aqueous solution containing 28% (w/v) hydroxypropyl β-cyclodextrin, volume ratio) was given by intraperitoneal injection. Mice in the viral control group were treated with PBS. Body weight and survival rate of these mice were then observed up to the 15th day post-infection.

Human Furin = Human Furin (Homo sapiens, UniProt P09958); assay: Protease panel, furin inhibition; assay type: biochemical; settings: at a concentration of 20 μM; for inhibition: read-out: Inhibition rate, Human Furin
Chain of Human Furin (P09958 108-794): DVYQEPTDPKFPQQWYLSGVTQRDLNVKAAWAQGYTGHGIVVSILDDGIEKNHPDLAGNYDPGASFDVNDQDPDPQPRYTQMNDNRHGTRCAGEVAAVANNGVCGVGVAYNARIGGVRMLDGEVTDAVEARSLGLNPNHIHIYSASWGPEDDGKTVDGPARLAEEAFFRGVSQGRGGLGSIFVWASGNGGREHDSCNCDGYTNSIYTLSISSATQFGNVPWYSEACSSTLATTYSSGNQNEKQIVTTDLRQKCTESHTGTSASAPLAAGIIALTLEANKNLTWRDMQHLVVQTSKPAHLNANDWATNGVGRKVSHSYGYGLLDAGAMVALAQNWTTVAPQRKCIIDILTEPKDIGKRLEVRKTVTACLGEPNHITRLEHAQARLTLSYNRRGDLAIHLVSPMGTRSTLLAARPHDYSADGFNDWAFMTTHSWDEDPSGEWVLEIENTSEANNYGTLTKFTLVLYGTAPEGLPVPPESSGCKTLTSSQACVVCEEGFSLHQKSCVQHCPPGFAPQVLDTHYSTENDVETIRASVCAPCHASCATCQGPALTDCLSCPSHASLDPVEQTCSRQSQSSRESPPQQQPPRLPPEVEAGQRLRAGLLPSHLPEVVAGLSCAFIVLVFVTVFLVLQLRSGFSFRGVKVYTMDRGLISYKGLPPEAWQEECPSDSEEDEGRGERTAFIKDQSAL

| Compound | Vss_obs (Pharmacokinetics in dogs; i.v. (1 mg/kg)) | AUC(0-t) (Pharmacokinetics in dogs; iv, i.v. (1 mg/kg)) | clearance (Pharmacokinetics in dogs; iv, i.v. (1 mg/kg)) | half-life (Pharmacokinetics in dogs; iv, i.v. (1 mg/kg)) | AUC(0-inf) (Pharmacokinetics in dogs; iv, i.v. (1 mg/kg)) | MRT inf (Pharmacokinetics in dogs; iv, i.v. (1 mg/kg)) | AUC(0-t) (Pharmacokinetics in dogs; po, p.o. (5 mg/kg)) | Cmax (Pharmacokinetics in dogs; po, p.o. (5 mg/kg)) | Tmax (Pharmacokinetics in dogs; po, p.o. (5 mg/kg)) | bioavailability (Pharmacokinetics in dogs; po, p.o. (5 mg/kg)) | half-life (Pharmacokinetics in dogs; po, p.o. (5 mg/kg)) | AUC(0-inf) (Pharmacokinetics in dogs; po, p.o. (5 mg/kg)) | MRT inf (Pharmacokinetics in dogs; po, p.o. (5 mg/kg)) | AUC(0-t) (Pharmacokinetics in dogs; sc, s.c. (1 mg/kg)) | Cmax (Pharmacokinetics in dogs; sc, s.c. (1 mg/kg)) | Tmax (Pharmacokinetics in dogs; sc, s.c. (1 mg/kg)) | bioavailability (Pharmacokinetics in dogs; sc, s.c. (1 mg/kg)) | half-life (Pharmacokinetics in dogs; sc, s.c. (1 mg/kg)) | AUC(0-inf) (Pharmacokinetics in dogs; sc, s.c. (1 mg/kg)) | MRT inf (Pharmacokinetics in dogs; sc, s.c. (1 mg/kg)) | further results |
| --- | --- | --- | --- | --- | --- | --- | --- | --- | --- | --- | --- | --- | --- | --- | --- | --- | --- | --- | --- | --- | --- |
| O=C(NCc1ccccc1)C(=O)[C@H](C[C@@H]1CCCNC1=O)NC(=O)[C@H](CC1CCCCC1)NC(=O)c1cc2ccccc2o1 [14b, N-((S)-1-(((S)-4-(benzylamino)-3,4-dioxo-1-((S)-2-oxopiperidin-3-yl)butan-2-yl)amino)-3-cyclohexyl-1-oxopropan-2-yl)benzofuran-2-carboxamide] | 1.59 ± 0.557 L/kg | 544 ± 148 ng·h/mL | 31.9 ± 7.8 mL/min/kg | 1.07 ± 0.29 h | 546 ± 148 ng·h/mL | 0.82 ± 0.11 h | 271 ± 166 ng·h/mL | 235 ± 173 ng/mL | 0.58 ± 0.38 h | 10% | 2 ± 0.85 h | 283 ng·h/mL | 2.19 ± 0.86 h | 948 ± 46 ng·h/mL | 151 ± 36 ng/mL | 2.08 ± 1.88 h | 178% | 3.19 ± 1.57 h | 973 ± 54 ng·h/mL | 4.69 ± 1.25 h | Body weight of infected mice (HCoV-OC43; HCoV-OC43 100 TCID50, 5 mg/kg intraperitoneal injection): either mildly decreased or rapidly recovered; Final survival rate (HCoV-OC43; HCoV-OC43 100 TCID50, 5 mg/kg intraperitoneal injection 24 h after challenge): 60%; Inhibitory activity against furin (in words) (Human Furin): did not exhibit inhibitory activity; inhibition (Human Furin): -4 ± 1% |
| O=C(NCc1ccccc1)C(=O)[C@H](C[C@@H]1CCCNC1=O)NC(=O)[C@H](Cc1ccc(F)cc1)NC(=O)c1cc2ccccc2o1 [14a, N-((S)-1-(((S)-4-(benzylamino)-3,4-dioxo-1-((S)-2-oxopiperidin-3-yl)butan-2-yl)amino)-3-(4-fluorophenyl)-1-oxopropan-2-yl)benzofuran-2-carboxamide] | 1.05 L/kg | 732 ng·h/mL | 24.4 mL/min/kg | 1.04 h | 735 ng·h/mL | 0.74 h | 351 ng·h/mL | 154 ng/mL | 0.75 h | 10% | 1.33 h | 357 ng·h/mL | 1.86 h | 881 ng·h/mL | 116 ng/mL | 0.5 h | 120% | 3.96 h | 893 ng·h/mL | 5.14 h | Inhibitory activity against furin (in words) (Human Furin): did not exhibit inhibitory activity; inhibition (Human Furin): 3 ± 4% |

Reference: publication PMC10914734 (Signal Transduction and Targeted Therapy, 2024)
